Measured values published in patent publication US11000033B2, “Ketone or oxime compound, and herbicide” (NISSAN CHEMICAL CORPORATION, priority 2014, dated 2021).

Legend:
Assay type in all cases: in vivo
[1] = test system: Echinochloa oryzacola Vasing.; assay: Test Example 2: herbicidal activity, application during weed generation in submerged conditions (symbol A); conditions: Table 23; application herbicide amount 320 g/ha; grade 0-5 by criteria of Test Example 1
Method: (§1) Herbicidal Activity Test by Application During Weed Generation in Submerged Conditions
(§2) After alluvial soil was placed into 1/10000 are of Wagner pot, water was poured and mixed to form a submerged condition having a water depth of 4 cm. Seeds of Echinochloa oryzacola Vasing., Scirpus juncoides, and Monochoria vaginalis were sowed in a mixed manner in the above pot and the pot was placed in the greenhouse of 25° C. to 30° C. to grow the plants. When Echinochloa oryzacola Vasing., Scirpus juncoides, and Monochoria vaginalis were grown to one leaf stage to two leaf stage, the emulsion agent of the compound of the present invention prepared in accordance with Formulation Example 2 was diluted with water so as to be a predetermined herbicide amount and the diluted emulsion agent was applied to the surface of the water. 3 weeks later from the herbicide application, the effect to each plant was investigated in accordance with the criteria of Test Example 1.

[2] = test system: Scirpus juncoides; assay: Test Example 2: herbicidal activity, application during weed generation in submerged conditions (symbol B); conditions: Table 23; application herbicide amount 320 g/ha; grade 0-5 by criteria of Test Example 1
Method: as §1, §2

[3] = test system: Monochoria vaginalis; assay: Test Example 2: herbicidal activity, application during weed generation in submerged conditions (symbol C); conditions: Table 23; application herbicide amount 320 g/ha; grade 0-5 by criteria of Test Example 1
Method: as §1, §2

[4] = test system: Echinochloa crus-galli var. crus-galli; assay: Test Example 3: herbicidal effect by foliage application, Wagner pot (symbol H); conditions: application herbicide amount 320 g/ha
Procedure, shortened: (§3)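 Post-emergence, paddy-type test: seedlings 14 d old in shallow-flooded (0.1–0.5 cm) alluvial soil, 25–30 °C greenhouse. Emulsion diluted to target rate, sprayed on leaves. Read-out: visual effect on each species at 3 weeks, per set criteria.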

[5] = test system: Leptochloa chinensis; assay: Test Example 3: herbicidal effect by foliage application, Wagner pot (symbol D); conditions: application herbicide amount 320 g/ha
Procedure, shortened: as §3

[6] = test system: Cyperus difformis; assay: Test Example 3: herbicidal effect by foliage application, Wagner pot (symbol E); conditions: application herbicide amount 320 g/ha
Procedure, shortened: as §3

[7] = test system: directly sowed rice plant; assay: Test Example 3: effect on crop by foliage application, Wagner pot (symbol b); conditions: application herbicide amount 320 g/ha
Procedure, shortened: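 Wagner pot (1/10000 are), alluvial soil, submerged 0.1–0.5 cm; sown E. crus-galli var. crus-galli, L. chinensis, C. difformis, rice; greenhouse 25–30 °C.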

[8] = test system: Digitaria ciliaris; assay: Test Example 5: herbicidal effect by foliage application, plastic box (symbol F); conditions: 320 g/ha, 3 weeks after application
Procedure, shortened: (§4)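 Post-emergence spray; diluvial soil (sterilized), ~1.5 cm seed cover; greenhouse 25–30° C; 14-day-old plants; water-diluted emulsion at predetermined dose; visual score at 3 wk post-treatment.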

[9] = test system: Setaria viridis; assay: Test Example 5: herbicidal effect by foliage application, plastic box (symbol G); conditions: 320 g/ha, 3 weeks after application
Procedure, shortened: as §4

[10] = test system: Echinochloa crus-galli var. crus-galli; assay: Test Example 5: herbicidal effect by foliage application, plastic box (symbol H); conditions: 320 g/ha, 3 weeks after application
Procedure, shortened: as §4

[11] = test system: Avena fatua; assay: Test Example 5: herbicidal effect by foliage application, plastic box (symbol I); conditions: 320 g/ha, 3 weeks after application
Procedure, shortened: as §4

[12] = test system: Alopecurus myosuroides; assay: Test Example 5: herbicidal effect by foliage application, plastic box (symbol J); conditions: 320 g/ha, 3 weeks after application
Procedure, shortened: as §4

[13] = test system: Lolium multiflorum Lam.; assay: Test Example 5: herbicidal effect by foliage application, plastic box (symbol K); conditions: 320 g/ha, 3 weeks after application
Procedure, shortened: as §4

[14] = test system: Apera spica-venti; assay: Test Example 5: herbicidal effect by foliage application, plastic box (symbol L); conditions: 320 g/ha, 3 weeks after application
Procedure, shortened: as §4

[15] = test system: Abutilon theophrasti; assay: Test Example 5: herbicidal effect by foliage application, plastic box (symbol M); conditions: 320 g/ha, 3 weeks after application
Procedure, shortened: as §4

[16] = test system: Amaranthus retroflexus; assay: Test Example 5: herbicidal effect by foliage application, plastic box (symbol N); conditions: 320 g/ha, 3 weeks after application
Procedure, shortened: as §4

[17] = test system: Chenopodium album; assay: Test Example 5: herbicidal effect by foliage application, plastic box (symbol O); conditions: 320 g/ha, 3 weeks after application
Procedure, shortened: as §4

[18] = test system: Stellaria media; assay: Test Example 5: herbicidal effect by foliage application, plastic box (symbol P); conditions: 320 g/ha, 3 weeks after application
Procedure, shortened: as §4

[19] = test system: Galium spurium; assay: Test Example 5: herbicidal effect by foliage application, plastic box (symbol Q); conditions: 320 g/ha, 3 weeks after application
Procedure, shortened: as §4

[20] = test system: Veronica persica; assay: Test Example 5: herbicidal effect by foliage application, plastic box (symbol R); conditions: 320 g/ha, 3 weeks after application
Procedure, shortened: as §4

[21] = test system: corn; assay: Test Example 5: effect on crop by foliage application, plastic box (symbol c); conditions: 320 g/ha, 3 weeks after application
Procedure, shortened: (§5)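 Box culture: sterile diluvial soil, seeds spot-sown, ~1.5 cm cover, raised under glass at 25–30° C.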

[22] = test system: soybean; assay: Test Example 5: effect on crop by foliage application, plastic box (symbol d); conditions: 320 g/ha, 3 weeks after application
Procedure, shortened: as §5

[23] = test system: rice plant; assay: Test Example 5: effect on crop by foliage application, plastic box (symbol b); conditions: 320 g/ha, 3 weeks after application
Procedure, shortened: as §5

[24] = test system: wheat; assay: Test Example 5: effect on crop by foliage application, plastic box (symbol e); conditions: 320 g/ha, 3 weeks after application
Procedure, shortened: as §5

[25] = test system: beet; assay: Test Example 5: effect on crop by foliage application, plastic box (symbol f); conditions: 320 g/ha, 3 weeks after application
Procedure, shortened: as §5

[26] = test system: rapeseed; assay: Test Example 5: effect on crop by foliage application, plastic box (symbol g); conditions: 320 g/ha, 3 weeks after application
Procedure, shortened: as §5

Row | SMILES | Herbicidal effect grade, A: Echinochloa oryzacola Vasing. [1] | Herbicidal effect grade, B: Scirpus juncoides [2] | Herbicidal effect grade, C: Monochoria vaginalis [3] | F: Digitaria ciliaris, herbicidal effect grade [8] | G: Setaria viridis, herbicidal effect grade [9] | H: Echinochloa crus-galli var. crus-galli, herbicidal effect grade [10] | I: Avena fatua, herbicidal effect grade [11] | J: Alopecurus myosuroides, herbicidal effect grade [12] | K: Lolium multiflorum Lam., herbicidal effect grade [13] | L: Apera spica-venti, herbicidal effect grade [14] | M: Abutilon theophrasti, herbicidal effect grade [15] | N: Amaranthus retroflexus, herbicidal effect grade [16] | O: Chenopodium album, herbicidal effect grade [17] | P: Stellaria media, herbicidal effect grade [18] | Q: Galium spurium, herbicidal effect grade [19] | R: Veronica persica, herbicidal effect grade [20] | c: corn, effect on crop grade [21] | d: soybean, effect on crop grade [22] | b: directly sowed rice plant, effect on crop grade [23] | e: wheat, effect on crop grade [24] | further results
1 | CON=C(C)CC1CC(O)=C(c2c(C)cc(C#CC(C)(C)O)cc2C)C1=O (mixture of isomers) [6-036] | 3 (Herbicidal ratio of 40% or higher and lower than 70%) | 0 (Herbicidal ratio of 5% or lower (almost no effect)) | 0 (Herbicidal ratio of 5% or lower (almost no effect)) | 4 (Herbicidal ratio of 70% or higher and lower than 90%) | 4 (Herbicidal ratio of 70% or higher and lower than 90%) | 5 (Herbicidal ratio of 90% or more (almost completely withered)) | 3 (Herbicidal ratio of 40% or higher and lower than 70%) | 3 (Herbicidal ratio of 40% or higher and lower than 70%) | 5 (Herbicidal ratio of 90% or more (almost completely withered)) | 3 (Herbicidal ratio of 40% or higher and lower than 70%) | 0 (Herbicidal ratio of 5% or lower (almost no effect)) | 0 (Herbicidal ratio of 5% or lower (almost no effect)) | 0 (Herbicidal ratio of 5% or lower (almost no effect)) | 1 (Herbicidal ratio of 5% or higher and lower than 20%) | 0 (Herbicidal ratio of 5% or lower (almost no effect)) | 3 (Herbicidal ratio of 40% or higher and lower than 70%) | 4 (Herbicidal ratio of 70% or higher and lower than 90%) | 0 (Herbicidal ratio of 5% or lower (almost no effect)) | 4 (Herbicidal ratio of 70% or higher and lower than 90%) | 0 (Herbicidal ratio of 5% or lower (almost no effect)) | herbicidal effect on H (Echinochloa crus-galli var. crus-galli), grade 0-5 [4]: 4 (Herbicidal ratio of 70% or higher and lower than 90%); herbicidal effect on D (Leptochloa chinensis), grade 0-5 [5]: 5 (Herbicidal ratio of 90% or more (almost completely withered)); herbicidal effect on E, grade 0-5 [6]: 3 (Herbicidal ratio of 40% or higher and lower than 70%); effect on crop b (directly sowed rice plant), grade 0-5 [7]: 4 (Herbicidal ratio of 70% or higher and lower than 90%); f: beet, effect on crop grade [25]: 0 (Herbicidal ratio of 5% or lower (almost no effect)); g: rapeseed, effect on crop grade [26]: 3 (Herbicidal ratio of 40% or higher and lower than 70%)
2 | COc1cc(Br)cc(C)c1C1=C(O)CC(C(C)C(C)=O)C1=O (stereo not shown) [7-031] | 0 (Herbicidal ratio of 5% or lower (almost no effect)) | 1 (Herbicidal ratio of 5% or higher and lower than 20%) | 2 (Herbicidal ratio of 20% or higher and lower than 40%) | 4 (Herbicidal ratio of 70% or higher and lower than 90%) | 5 (Herbicidal ratio of 90% or more (almost completely withered)) | 5 (Herbicidal ratio of 90% or more (almost completely withered)) | 3 (Herbicidal ratio of 40% or higher and lower than 70%) | 3 (Herbicidal ratio of 40% or higher and lower than 70%) | 5 (Herbicidal ratio of 90% or more (almost completely withered)) | 5 (Herbicidal ratio of 90% or more (almost completely withered)) | 0 (Herbicidal ratio of 5% or lower (almost no effect)) | 0 (Herbicidal ratio of 5% or lower (almost no effect)) | 0 (Herbicidal ratio of 5% or lower (almost no effect)) | 0 (Herbicidal ratio of 5% or lower (almost no effect)) | 0 (Herbicidal ratio of 5% or lower (almost no effect)) | 0 (Herbicidal ratio of 5% or lower (almost no effect)) | 1 (Herbicidal ratio of 5% or higher and lower than 20%) | 0 (Herbicidal ratio of 5% or lower (almost no effect)) | 4 (Herbicidal ratio of 70% or higher and lower than 90%) | 0 (Herbicidal ratio of 5% or lower (almost no effect)) | H (Echinochloa crus-galli var. crus-galli) herbicidal effect grade ([4]; Table 24): 4 (Herbicidal ratio of 70% or higher and lower than 90%); D (Leptochloa chinensis) herbicidal effect grade ([5]; Table 24): 5 (Herbicidal ratio of 90% or more (almost completely withered)); E herbicidal effect grade ([6]; Table 24): 3 (Herbicidal ratio of 40% or higher and lower than 70%); b (directly sowed rice plant) effect on crop grade ([7]; Table 24): 5 (Herbicidal ratio of 90% or more (almost completely withered)); f: beet, effect on crop grade [25]: 0 (Herbicidal ratio of 5% or lower (almost no effect)); g: rapeseed, effect on crop grade [26]: 0 (Herbicidal ratio of 5% or lower (almost no effect))
